The values that follow come from patent US20250214942A1, “INHIBITORS OF RECEPTOR INTERACTING PROTEIN KINASE I FOR THE TREATMENT OF DISEASE” (Board of Regents, The University of Texas System, priority 2019, published 2025).

Assay [1] deals with human monocytic cell line U937. The assay is described as follows: Human U937 cellular necroptosis assay (TNFalpha + z-VAD-FMK, Cell Titer-Glo viability). Format: cell-based. To be noted: Homo sapiens, U-937, 22 h, U937 cells, 25 ng/mL human TNFalpha + 25 μM z-VAD-FMK, read-out: hU937 Avg IC50. The method, boiled down:
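Readout is CellTiter-Glo 2.0 luminescence after 22 h at 37° C with compound, in cells triggered by human TNFalpha (25 ng/mL) and z-VAD-FMK (25 μM) in phenol red-free RPMI/10% FBS. Values are run-averaged IC50s from a four-parameter logistic curve.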

Assay [2] addresses RIPK1 (Homo sapiens (Human), UniProt Q13546). The assay is described as follows: ADP-Glo kinase assay (RIPK1 activity, conversion of ATP to ADP). The assay is classed as biochemical. The following applies: 5 nM RIPK1, 50 μM ATP, 6 h reaction; read-out: RIPK1 Enzyme Avg IC50. An outline of the steps: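 RIPK1 (5 nM final) was preincubated 10 min at rt with 1:3-diluted compounds in HEPES pH 7.5/MgCl2/DTT/BSA/CHAPS buffer. ATP (50 μM final) was then added for 6 h, and ADP formed was read by ADP-Glo luminescence. IC50 values came from four-parameter logistic fitting.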

Sequence of RIPK1 (Q13546 1-327): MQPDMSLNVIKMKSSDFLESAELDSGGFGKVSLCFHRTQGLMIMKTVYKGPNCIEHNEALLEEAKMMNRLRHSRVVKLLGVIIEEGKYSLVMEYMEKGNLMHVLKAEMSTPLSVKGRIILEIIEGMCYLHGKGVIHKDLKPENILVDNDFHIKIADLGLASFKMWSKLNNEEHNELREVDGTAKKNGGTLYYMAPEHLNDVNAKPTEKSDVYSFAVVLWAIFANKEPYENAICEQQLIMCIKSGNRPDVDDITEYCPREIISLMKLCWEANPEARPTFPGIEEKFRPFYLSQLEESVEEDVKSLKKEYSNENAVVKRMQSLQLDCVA

Turning to `O=C(N1N=CCC1c1cc(F)cc(F)c1)C12CC(Cn3ncc4cccc(Cl)c43)(C1)C2` (centres unmarked) [Example 69, (3-((7-chloro-1H-indazol-1-yl)methyl)bicyclo[1.1.1]-pentan-1-yl)(5-(3,5-difluoro-phenyl)-4,5-dihydro-1H-pyrazol-1-yl)methanone], the IC50 in assay [1] was determined as 44 nM; in assay [2] it was 22 nM.

On to `O=C(N1N=CCC1c1cc(F)cc(F)c1)C12CC(Cn3ncc4ccc(F)cc43)(C1)C2` (centres unmarked) [Example 70, (5-(3,5-difluorophenyl)-4,5-dihydro-1H-pyrazol-1-yl)(3-((6-fluoro-1H-indazol-1-yl)-methyl)bicyclo[1.1.1]pentan-1-yl)methanone], for which the values for the concentration for half-maximal inhibition (IC50) in assay [1] and in assay [2] were 26 nM and 34 nM, respectively.

Regarding `N#Cc1cnn(CC23CC(C(=O)N4N=CCC4c4cc(F)cc(F)c4)(C2)C3)c1` (centres unmarked) [Example 71, 1-((3-(5-(3,5-difluorophenyl)-4,5-dihydro-1H-pyrazole-1-carbonyl)bicyclo[1.1.1]-pentan-1-yl)methyl)-1H-pyrazole-4-carbonitrile], the results for the IC50 in assay [1] and in assay [2] were 134 nM and 39 nM, respectively.

`O=C(N1N=CCC1c1cc(F)cc(F)c1)C12CC(Cn3cc(C(F)(F)F)cn3)(C1)C2` (centres unmarked) [Example 72, (5-(3,5-difluorophenyl)-4,5-dihydro-1H-pyrazol-1-yl)(3-((4-(trifluoromethyl)-1H-pyrazol-1-yl)methyl)bicyclo-[1.1.1]pentan-1-yl)methanone]: the IC50 in assay [1] amounted to 98 nM; in assay [2], 78 nM.

For `COc1ccc2cnn(CC34CC(C(=O)N5N=CCC5c5cc(F)cc(F)c5)(C3)C4)c2c1` (centres unmarked) [Example 73, (5-(3,5-difluorophenyl)-4,5-dihydro-1H-pyrazol-1-yl)(3-((6-methoxy-1H-indazol-1-yl)methyl)bicyclo[1.1.1]-pentan-1-yl)methanone], the IC50 in assay [1] is 527 nM; in assay [2], 111 nM.

Turning to `Cc1cnn(CC23CC(C(=O)N4N=CCC4c4cc(F)cc(F)c4)(C2)C3)c1` (centres unmarked) [Example 74, (5-(3,5-difluorophenyl)-4,5-dihydro-1H-pyrazol-1-yl)(3-((4-methyl-1H-pyrazol-1-yl)-methyl)bicyclo[1.1.1]pentan-1-yl)methanone], the IC50 was found to be 514 nM in assay [1] and 124 nM in assay [2].

In the case of `O=C(N1N=CCC1c1ccccc1)C12CC(Cn3ncc4c(F)cccc43)(C1)C2` (centres unmarked) [Example 81, (3-((4-fluoro-1H-indazol-1-yl)methyl)bicyclo[1.1.1]-pentan-1-yl)(5-phenyl-4,5-dihydro-1H-pyrazol-1-yl)-methanone], the IC50 in assay [1] was 12 nM; in assay [2], 11 nM.

Take `N#Cc1cccc(C2CC=NN2C(=O)C23CC(Cn4ncc5c(F)cccc54)(C2)C3)c1` (centres unmarked) [Example 82, 3-(1-(3-((4-fluoro-1H-indazol-1-yl)methyl)bicyclo-[1.1.1]pentane-1-carbonyl)-4,5-dihydro-1H-pyrazol-5-yl)benzonitrile]: the IC50 stood at 31 nM in assay [1] and 11 nM in assay [2].

With `O=C(N1CC(F)CC1c1cccc(F)c1)C12CC(Cn3ncc4c(F)cccc43)(C1)C2` (centres unmarked) [Example 83, (3-((4-fluoro-1H-indazol-1-yl)methyl)bicyclo[1.1.1]-pentan-1-yl)(4-fluoro-2-(3-fluorophenyl)pyrrolidin-1-yl)methanone], the IC50 is 67 nM in assay [1] and 16 nM in assay [2].

On to `O=C(N1N=CCC1c1cc(F)ccc1F)C12CC(Cn3ncc4c(F)cccc43)(C1)C2` (centres unmarked) [Example 84, (5-(2,5-difluorophenyl)-4,5-dihydro-1H-pyrazol-1-yl)(3-((4-fluoro-1H-indazol-1-yl)-methyl)bicyclo[1.1.1]pentan-1-yl)methanone], for which the results for the concentration for half-maximal inhibition (IC50) in assay [1] and in assay [2] were 3 nM and 22 nM, respectively.

On to `O=C(N1N=CCC1c1cc(F)cc(F)c1)C12CC(Cn3nc4ccc(F)cc4n3)(C1)C2` (centres unmarked) [Example 85, (5-(3,5-difluorophenyl)-4,5-dihydro-1H-pyrazol-1-yl)(3-((5-fluoro-2H-benzo[d]-[1,2,3]triazol-2-yl)methyl)-bicyclo[1.1.1]pentan-1-yl)-methanone], for which the 50% inhibitory concentration (IC50) in assay [1] was found to be 24 nM; in assay [2] it was 18 nM.

For the compound `O=C(N1N=CCC1c1cc(F)cc(F)c1)C12CC(Cn3ncc4ccncc43)(C1)C2` (centres unmarked) [Example 87, (3-((1H-pyrazolo[3,4-c]-pyridin-1-yl)methyl)bicyclo-[1.1.1]pentan-1-yl)(5-(3,5-difluorophenyl)-4,5-dihydro-1H-pyrazol-1-yl)methanone], the results for the IC50 in assay [1] and in assay [2] were 33 nM and 21 nM, respectively.

Regarding `O=C(N1N=CCC1c1cc(F)cc(F)c1)C12CC(Cn3cc4ccncc4n3)(C1)C2` (centres unmarked) [Example 88, (3-((2H-pyrazolo[3,4-c]-pyridin-2-yl)methyl)bicyclo-[1.1.1]pentan-1-yl)(5-(3,5-difluorophenyl)-4,5-dihydro-1H-pyrazol-1-yl)methanone], the figures for the half-inhibitory concentration (IC50) in assay [1] and in assay [2] were 94 nM and 24 nM, respectively.

For `O=C(N1N=CCC1c1cc(F)cc(F)c1)C12CC(Cn3ncc4cccnc43)(C1)C2` (centres unmarked) [Example 89, (3-((1H-pyrazolo[3,4-b]-pyridin-1-yl)methyl)bicyclo-[1.1.1]pentan-1-yl)(5-(3,5-difluorophenyl)-4,5-dihydro-1H-pyrazol-1-yl)methanone], the concentration for half-maximal inhibition (IC50) turned out to be 137 nM in assay [1] and 25 nM in assay [2].

In the case of `N#Cc1cc(OCC23CC(C(=O)N4CC(F)CC4c4cccc(F)c4)(C2)C3)ncn1` (centres unmarked) [Example 92, 6-((3-(4-fluoro-2-(3-fluorophenyl)pyrrolidine-1-carbonyl)bicyclo[1.1.1]-pentan-1-yl)methoxy)-pyrimidine-4-carbonitrile], the half-maximal inhibitory concentration (IC50) came out at 518 nM in assay [1] and 56 nM in assay [2].

Take `Cc1ncnc(OCC23CC(C(=O)N4CC(F)CC4c4cccc(F)c4)(C2)C3)c1F` (centres unmarked) [Example 93, (4-fluoro-2-(3-fluorophenyl)-pyrrolidin-1-yl)(3-(((5-fluoro-6-methylpyrimidin-4-yl)oxy)methyl)bicyclo[1.1.1]-pentan-1-yl)methanone]: the IC50 in assay [1] is 398 nM; in assay [2], 79 nM.

For the compound `N#Cc1cccc(OCC23CC(C(=O)N4CC(F)CC4c4cccc(F)c4)(C2)C3)n1` (centres unmarked) [Example 94, 6-((3-(4-fluoro-2-(3-fluoro-phenyl)pyrrolidine-1-carbonyl)bicyclo[1.1.1]-pentan-1-yl)methoxy)-picolinonitrile], the 50% inhibitory concentration (IC50) in assay [1] was found to be 994 nM; in assay [2], 109 nM.

For the compound `O=C(N1CC(F)CC1c1cccc(F)c1)C12CC(COc3nccc(Cl)n3)(C1)C2` (centres unmarked) [Example 101, (3-(((4-chloropyrimidin-2-yl)oxy)methyl)bicyclo[1.1.1]-pentan-1-yl)(4-fluoro-2-(3-fluorophenyl)pyrrolidin-1-yl)methanone], the half-maximal inhibitory concentration (IC50) in assay [1] turned out to be 1340 nM; in assay [2], 486 nM.

For `O=C(N1CC(F)CC1c1cccc(F)c1)C12CC(Cn3cc4cc(F)ccc4n3)(C1)C2` (centres unmarked) [Example 106, (4-fluoro-2-(3-fluorophenyl)-pyrrolidin-1-yl)(3-((5-fluoro-2H-indazol-2-yl)methyl)-bicyclo[1.1.1]pentan-1-yl)methanone], the IC50 was found to be 1470 nM in assay [1] and 371 nM in assay [2].

Take `O=C(N1N=CCC1c1cc(F)cc(F)c1)C12CC(Cn3c(=O)[nH]c4ccccc43)(C1)C2` (centres unmarked) [Example 109, 1-((3-(5-(3,5-difluorophenyl)-4.5-dihydro-1H-pyrazole-1-carbonyl)bicyclo[1.1.1]-pentan-1-yl)methyl)-1,3-dihydro-2H-benzo[d]-imidazol-2-one]: the IC50 is 470 nM in assay [1] and 42 nM in assay [2].

As to `Cn1c(=O)n(CC23CC(C(=O)N4N=CCC4c4cc(F)cc(F)c4)(C2)C3)c2ccccc21` (centres unmarked) [Example 110, 1-((3-(5-(3,5-difluorophenyl)-4,5-dihydro-1H-pyrazole-1-carbonyl)bicyclo[1.1.1]-pentan-1-yl)methyl)-3-methyl-1,3-dihydro-2H-benzo[d]imidazol-2-one], the half-maximal inhibitory concentration (IC50) in assay [1] stood at 734 nM; in assay [2], 134 nM.

As to `O=C(N1N=CCC1c1cc(F)cc(F)c1)C12CC(Cn3cc(-c4ccccn4)cn3)(C1)C2` (centres unmarked) [Example 111, (5-(3,5-difluorophenyl)-4,5-dihydro-1H-pyrazol-1-yl)(3-((4-(pyridin-2-yl)-1H-pyrazol-1-yl)methyl)-bicyclo[1.1.1]pentan-1-yl)methanone], the IC50 in assay [1] came to 249 nM; in assay [2] it was 43 nM.

`O=C(N1N=CCC1c1cc(F)cc(F)c1)C12CC(Cn3cc(-c4cnccn4)cn3)(C1)C2` (centres unmarked) [Example 112, (5-(3,5-difluorophenyl)-4,5-dihydro-1H-pyrazol-1-yl)(3-((4-(pyrazin-2-yl)-1H-pyrazol-1-yl)methyl)-bicyclo[1.1.1]pentan-1-yl)-methanone]: the IC50 came to 285 nM in assay [1] and 73 nM in assay [2].

Take `N#Cc1cn(CC23CC(C(=O)N4N=CCC4c4cc(F)cc(F)c4)(C2)C3)cn1` (centres unmarked) [Example 124, 1-((3-(5-(3,5-difluorophenyl)-4,5-dihydro-1H-pyrazole-1-carbonyl)bicyclo[1.1.1]-pentan-1-yl)methyl)-1H-imidazole-4-carbonitrile]: the IC50 came out at 751 nM in assay [1] and 156 nM in assay [2].

For the compound `N#Cc1cc(OCC23CC(C(=O)N4N=CCC4c4cncc(F)c4)(C2)C3)ncn1` (centres unmarked) [Example 126, 6-((3-(5-(5-fluoropyridin-3-yl)-4,5-dihydro-1H-pyrazole-1-carbonyl)bicyclo[1.1.1]-pentan-1-yl)-methoxy)pyrimidine-4-carbonitrile], the half-inhibitory concentration (IC50) in assay [1] worked out at 440 nM; in assay [2] it was 49 nM.
